Read-outs that look alike come from different tables or passages of the source.
Assays:
MALME-3M = assay: NCI human tumor cell panel: MALME-3M (Melanoma); format: cell-based; settings: MALME-3M, Melanoma; for GI50: read-out: Log10 GI50 (converted); for IC (TGI): read-out: Log10 TGI (converted)
OVCAR-3 = assay: NCI human tumor cell panel: OVCAR-3 (Ovarian Cancer); format: cell-based; settings: OVCAR-3, Ovarian Cancer; for GI50: read-out: Log10 GI50 (converted); for IC (TGI): read-out: Log10 TGI (converted)
KM12 = assay: NCI human tumor cell panel: KM12 (Colon Cancer); format: cell-based; settings: KM12, Colon Cancer; for GI50: read-out: Log10 GI50 (converted); for IC (TGI): read-out: Log10 TGI (converted)
ACHN = assay: NCI human tumor cell panel: ACHN (Renal Cancer); format: cell-based; settings: Renal Cancer; for GI50: read-out: Log10 GI50 (converted); for IC (TGI): read-out: Log10 TGI (converted)
A549/ATCC = assay: NCI human tumor cell panel: A549/ATCC (Non-Small Cell Lung Cancer); format: cell-based; settings: Non-Small Cell Lung Cancer; for GI50: read-out: Log10 GI50 (converted); for IC (TGI): read-out: Log10 TGI (converted)
A498 = assay: NCI human tumor cell panel: A498 (Renal Cancer); format: cell-based; settings: A498, Renal Cancer
SK-MEL-5 = assay: NCI human tumor cell panel: SK-MEL-5 (Melanoma); format: cell-based; settings: SK-MEL-5, Melanoma; for GI50: read-out: Log10 GI50 (converted); for IC (TGI): read-out: Log10 TGI (converted)
SN12C = assay: NCI human tumor cell panel: SN12C (Renal Cancer); format: cell-based; settings: Renal Cancer; for GI50: read-out: Log10 GI50 (converted); for IC (TGI): read-out: Log10 TGI (converted)
OVCAR-8 = assay: NCI human tumor cell panel: OVCAR-8 (Ovarian Cancer); format: cell-based; settings: OVCAR-8, Ovarian Cancer; for GI50: read-out: Log10 GI50 (converted); for IC (TGI): read-out: Log10 TGI (converted)
T-47D = assay: NCI human tumor cell panel: T-47D (Breast Cancer); format: cell-based; settings: T47D, Breast Cancer; for IC (TGI): read-out: Log10 TGI (converted)
SW-620 = assay: NCI human tumor cell panel: SW-620 (Colon Cancer); format: cell-based; settings: SW-620, Colon Cancer; for IC (TGI): read-out: Log10 TGI (converted)
HL-60(TB) = assay: NCI human tumor cell panel: HL-60(TB) (Leukemia); format: cell-based; settings: Leukemia; for GI50: read-out: Log10 GI50 (converted)
[1] = test system: panel of sixty different human tumor cell lines; assay: NCI human tumor cell panel: whole panel (mean graph summary); settings: for GI50 / CC50: Homo sapiens
HCT-116 = assay: NCI human tumor cell panel: HCT-116 (Colon Cancer); format: cell-based; settings: HCT-116, Colon Cancer; for GI50: read-out: Log10 GI50 (converted); for IC (TGI): read-out: Log10 TGI (converted)
MCF7 = assay: NCI human tumor cell panel: MCF7 (Breast Cancer); format: cell-based; settings: MCF7, Breast Cancer; for GI50: read-out: Log10 GI50 (converted); for IC (TGI): read-out: Log10 TGI (converted)
SK-OV-3 = assay: NCI human tumor cell panel: SK-OV-3 (Ovarian Cancer); format: cell-based; settings: SK-OV-3, Ovarian Cancer; for GI50: read-out: Log10 GI50 (converted); for IC (TGI): read-out: Log10 TGI (converted)
UACC-257 = assay: NCI human tumor cell panel: UACC-257 (Melanoma); format: cell-based; settings: UACC-257, Melanoma; for GI50: read-out: Log10 GI50 (converted); for IC (TGI): read-out: Log10 TGI (converted)
DU-145 = assay: NCI human tumor cell panel: DU-145 (Prostate Cancer); format: cell-based; settings: DU-145, Prostate Cancer; for GI50: read-out: Log10 GI50 (converted); for IC (TGI): read-out: Log10 TGI (converted)
RXF-393 = assay: NCI human tumor cell panel: RXF-393 (Renal Cancer); format: cell-based; settings: RXF-393, Renal Cancer; for GI50: read-out: Log10 GI50 (converted); for IC (TGI): read-out: Log10 TGI (converted)
NCI-H226 = assay: NCI human tumor cell panel: NCI-H226 (Non-Small Cell Lung Cancer); format: cell-based; settings: NCI-H226, Non-Small Cell Lung Cancer; for GI50: read-out: Log10 GI50 (converted); for IC (TGI): read-out: Log10 TGI (converted)
COLO 205 = assay: NCI human tumor cell panel: COLO 205 (Colon Cancer); format: cell-based; settings: COLO 205, Colon Cancer; for GI50: read-out: Log10 GI50 (converted); for IC (TGI): read-out: Log10 TGI (converted)
K-562 = assay: NCI human tumor cell panel: K-562 (Leukemia); format: cell-based; settings: K562, K-562, Leukemia; for GI50: read-out: Log10 GI50 (converted); for IC (TGI): read-out: Log10 TGI (converted)
SF-268 = assay: NCI human tumor cell panel: SF-268 (CNS Cancer); format: cell-based; settings: SF-268, CNS Cancer; for GI50: read-out: Log10 GI50 (converted); for IC (TGI): read-out: Log10 TGI (converted)
CCRF-CEM = assay: NCI human tumor cell panel: CCRF-CEM (Leukemia); format: cell-based; settings: Leukemia; for GI50: read-out: Log10 GI50 (converted); for IC (TGI): read-out: Log10 TGI (converted)
RPMI-8226 = assay: NCI human tumor cell panel: RPMI-8226 (Leukemia); format: cell-based; settings: RPMI-8226, Leukemia; for GI50: read-out: Log10 GI50 (converted); for IC (TGI): read-out: Log10 TGI
MOLT-4 = assay: NCI human tumor cell panel: MOLT-4 (Leukemia); format: cell-based; settings: MOLT-4, Leukemia; for GI50: read-out: Log10 GI50 (converted); for IC (TGI): read-out: Log10 TGI (converted)
UACC-62 = assay: NCI human tumor cell panel: UACC-62 (Melanoma); format: cell-based; settings: UACC-62, Melanoma; for GI50: read-out: Log10 GI50 (converted); for IC (TGI): read-out: Log10 TGI (converted)
CAKI-1 = assay: NCI human tumor cell panel: CAKI-1 (Renal Cancer); format: cell-based; settings: CAKI-1, Renal Cancer
MDA-MB-231/ATCC = assay: NCI human tumor cell panel: MDA-MB-231/ATCC (Breast Cancer); format: cell-based; settings: Homo sapiens, MDA-MB-231, MDA-MB-231/ATCC, Breast Cancer
[2] = read-out: Log10 GI50 (converted)
[3] = read-out: Log10 TGI (converted)

O=Cc1ccc(-c2ccc(-c3cccs3)[se]2)s1 [NSC 675346]
GI50 (MALME-3M): 34.7 µM | IC (TGI) (MALME-3M): > 100 µM | GI50 (OVCAR-3): 0.0191 µM | IC (TGI) (OVCAR-3): 21.4 µM | GI50 (KM12): 32.4 µM | IC (TGI) (KM12): > 100 µM | GI50 (ACHN): 22.9 µM | IC (TGI) (ACHN): > 100 µM | GI50 (A549/ATCC): 55 µM | IC (TGI) (A549/ATCC): > 100 µM | GI50 (A498; [2]): 0.145 µM | IC (TGI) (A498; [3]): 0.295 µM | GI50 (SK-MEL-5): 46.8 µM | IC (TGI) (SK-MEL-5): > 100 µM | GI50 (SN12C): > 100 µM | IC (TGI) (SN12C): > 100 µM | GI50 (OVCAR-8): 4.47 µM | IC (TGI) (OVCAR-8): > 100 µM | GI50 (T-47D; [2]): 18.2 µM | IC (TGI) (T-47D): 40.7 µM | IC (TGI) (SW-620): > 100 µM | GI50 (HL-60(TB)): > 100 µM | IC (TGI) (HL-60(TB); read-out: Log10 TGI): > 100 µM | GI50 ([1]; read-out: Log10 GI50, cell line not given (converted)): 1.7 µM | CC50 ([1]; read-out: Log10 LC50, cell line not given (converted)): > 100 µM | Log10 TGI ([1]; cell line not given): >−4.00 | GI50 (HCT-116): 0.115 µM | IC (TGI) (HCT-116): > 100 µM | GI50 (MCF7): 0.813 µM | IC (TGI) (MCF7): > 100 µM | GI50 (SK-OV-3): 12.6 µM | IC (TGI) (SK-OV-3): > 100 µM | GI50 (UACC-257): 0.0263 µM | IC (TGI) (UACC-257): 0.0832 µM | GI50 (DU-145): 28.8 µM | IC (TGI) (DU-145): > 100 µM | GI50 (RXF-393): 16.2 µM | IC (TGI) (RXF-393): 42.7 µM | GI50 (NCI-H226): 0.0174 µM | IC (TGI) (NCI-H226): 0.12 µM | GI50 (COLO 205): 4.79 µM | IC (TGI) (COLO 205): > 100 µM | GI50 (K-562): 2.29 µM | IC (TGI) (K-562): > 100 µM | GI50 (SF-268): 19.1 µM | IC (TGI) (SF-268): > 100 µM | GI50 (CCRF-CEM): > 100 µM | IC (TGI) (CCRF-CEM): > 100 µM | GI50 (RPMI-8226): > 100 µM | IC (TGI) (RPMI-8226): > 100 µM | GI50 (MOLT-4): > 100 µM | IC (TGI) (MOLT-4): > 100 µM | GI50 (UACC-62): < 0.01 µM | IC (TGI) (UACC-62): 0.0282 µM

O=Cc1ccc(-c2ccc(-c3ccc(C=O)[se]3)s2)[se]1 [NSC 676630]
GI50 (MALME-3M): > 100 µM | IC (TGI) (MALME-3M): > 100 µM | GI50 (OVCAR-3): 0.724 µM | IC (TGI) (OVCAR-3): > 100 µM | GI50 (KM12): > 100 µM | IC (TGI) (KM12): > 100 µM | GI50 (ACHN): > 100 µM | IC (TGI) (ACHN): > 100 µM | GI50 (A549/ATCC): 87.1 µM | IC (TGI) (A549/ATCC): > 100 µM | GI50 (SK-MEL-5): > 100 µM | IC (TGI) (SK-MEL-5): > 100 µM | GI50 (SN12C): > 100 µM | IC (TGI) (SN12C): > 100 µM | GI50 (OVCAR-8): 33.1 µM | IC (TGI) (OVCAR-8): > 100 µM | IC (TGI) (T-47D): > 100 µM | GI50 (SW-620; [2]): > 100 µM | IC (TGI) (SW-620): > 100 µM | GI50 (HL-60(TB)): > 100 µM | GI50 ([1]; read-out: Delta Log10 GI50, whole panel, line Delta (converted)): 26.3 µM | CC50 ([1]; read-out: Delta Log10 LC50, whole panel, line Delta (converted)): 85.1 µM | GI50 (HCT-116): 3.02 µM | IC (TGI) (HCT-116): > 100 µM | GI50 (MCF7): 0.676 µM | IC (TGI) (MCF7): > 100 µM | GI50 (SK-OV-3): > 100 µM | IC (TGI) (SK-OV-3): > 100 µM | GI50 (UACC-257): 0.275 µM | IC (TGI) (UACC-257): 0.676 µM | GI50 (DU-145): > 100 µM | IC (TGI) (DU-145): > 100 µM | GI50 (CAKI-1; [2]): 0.741 µM | IC (TGI) (CAKI-1; [3]): 15.1 µM | GI50 (RXF-393): > 100 µM | IC (TGI) (RXF-393): > 100 µM | GI50 (NCI-H226): 0.191 µM | IC (TGI) (NCI-H226): 0.49 µM | GI50 (MDA-MB-231/ATCC; [2]): > 100 µM | IC (TGI) (MDA-MB-231/ATCC; [3]): > 100 µM | GI50 (COLO 205): 93.3 µM | IC (TGI) (COLO 205): > 100 µM | GI50 (K-562): 3.39 µM | IC (TGI) (K-562): > 100 µM | GI50 (SF-268): > 100 µM | IC (TGI) (SF-268): > 100 µM | GI50 (CCRF-CEM): > 100 µM | IC (TGI) (CCRF-CEM): > 100 µM | GI50 (RPMI-8226): > 100 µM | IC (TGI) (RPMI-8226): > 100 µM | GI50 (MOLT-4): > 100 µM | IC (TGI) (MOLT-4): > 100 µM | GI50 (UACC-62): 0.263 µM | IC (TGI) (UACC-62): > 100 µM

Reference: patent publication US20040063662A1, “Selenophene anti-tumor agents” (priority 1996, published 2004)
